US7183252B2, “Indole peptidomimetics as thrombin receptor antagonists” (Ortho-McNeil Pharmaceutical, Inc., priority 1999, dated 2007)
Read-outs that look alike come from different tables or passages of the source.

What was measured:
[1] = tested on: gel-filtered platelets; test: In vitro inhibition of thrombin-induced gel-filtered platelet aggregation; type: cell-based; conditions: human gel-filtered platelets, agonist thrombin 50 μL of 1 unit/mL, read-out: Thrmb IC50 (Thrombin-induced aggregation of gel-filtered platelets)
Method in brief: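 Gel-filtered (Sepharose 2B) human platelets from citrated PRP, 2×10^7 per sample, in Tyrode's buffer pH 7.4 with BSA and added calcium, preincubated with test compound. Aggregation induced by thrombin (50 μL of 1 unit/mL) and followed as light transmission over 3 min. Inhibition is taken relative to control-treated platelets.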

[2] = molecular target: T1, thrombin receptor (PAR-1) (Homo sapiens, UniProt P25116); test: In vitro thrombin receptor binding assay (CHRF membranes); conditions: tritiated 721-40 radioligand, read-out: Bndg IC50 (Thrombin receptor binding)
T1 construct: CHRF membranes (Jones, Biochim. Biophys. Acta 1992, 1136, 272) are thawed from −70° C; endogenous in cells; host or cells: CHRF cell membranes
T1 sequence (P25116 22-425): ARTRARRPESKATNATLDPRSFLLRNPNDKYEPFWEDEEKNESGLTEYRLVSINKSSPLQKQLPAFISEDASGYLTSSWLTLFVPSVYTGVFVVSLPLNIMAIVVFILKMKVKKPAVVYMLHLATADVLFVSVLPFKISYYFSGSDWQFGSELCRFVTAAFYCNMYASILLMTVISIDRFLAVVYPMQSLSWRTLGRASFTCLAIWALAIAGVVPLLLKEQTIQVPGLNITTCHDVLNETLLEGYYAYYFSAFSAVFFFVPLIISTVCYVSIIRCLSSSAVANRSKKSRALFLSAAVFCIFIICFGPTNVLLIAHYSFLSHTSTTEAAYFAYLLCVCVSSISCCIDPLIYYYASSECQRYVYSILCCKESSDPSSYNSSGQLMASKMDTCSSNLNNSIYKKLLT
Method in brief: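 CHRF cell membranes incubated 30 min with tritiated peptide agonist 721–40 and compound at 3.7 μg/mL final (0.6% DMSO) in HEPES/MgCl2/BSA buffer. Nonspecific binding defined with unlabeled 721–40; bound radioactivity counted after filtration onto PEI-treated filters.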

Structure (SMILES)	IC50 ([1]; Platelet)	IC50 [2]	IC50 [1]
NCCNC(=O)[C@H](Cc1c[nH]cn1)NC(=O)[C@H](Cc1ccc(Cl)cc1)NC(=O)Nc1ccc2c(CN3CCCC3)cn(Cc3c(Cl)cccc3Cl)c2c1 [Compound 134]	950 nM	1200 nM	
NCCNC(=O)[C@H](Cc1ccncc1)NC(=O)[C@H](Cc1ccc(Cl)cc1)NC(=O)Nc1ccc2c(CN3CCCC3)cn(Cc3c(Cl)cccc3Cl)c2c1 [Compound 135, L-Alaninamide, 4-chloro-N-[[[1-[(2,6-dichlorophenyl)methyl]-3-(1-pyrrolidinylmethyl)-1H-indol-6-yl]amino]carbonyl]-L-phenylalanyl-N-(2-aminoethyl)-3-(4-pyridinyl)-]		890 nM	690 nM
NCCNC(=O)[C@H](Cc1cccs1)NC(=O)[C@H](Cc1ccc(Cl)cc1)NC(=O)Nc1ccc2c(CN3CCCC3)cn(Cc3c(Cl)cccc3Cl)c2c1 [Compound 136]	550 nM	1100 nM	
NCCNC(=O)[C@H](Cc1cscn1)NC(=O)[C@H](Cc1ccc(Cl)cc1)NC(=O)Nc1ccc2c(CN3CCCC3)cn(Cc3c(Cl)cccc3Cl)c2c1 [Compound 137]	940 nM	810 nM	
NCCNC(=O)[C@H](Cc1cccc(F)c1)NC(=O)[C@H](Cc1ccc(F)c(F)c1)NC(=O)Nc1ccc2c(CN3CCCC3)cn(Cc3c(Cl)cccc3Cl)c2c1 [Compound 138]	330 nM	2000 nM	
CC(=N)NCCNC(=O)[C@H](Cc1ccncc1)NC(=O)[C@H](Cc1ccc(Cl)cc1)NC(=O)Nc1ccc2c(CN3CCCC3)cn(Cc3c(Cl)cccc3Cl)c2c1 [Compound 139]	330 nM	1000 nM	
CC(=N)NCCNC(=O)[C@H](CCNC(C)=N)NC(=O)[C@H](Cc1ccc(F)c(F)c1)NC(=O)Nc1ccc2c(CN3CCCC3)cn(Cc3c(Cl)cccc3Cl)c2c1 [Compound 140]	740 nM	120 nM	
NCC[C@H](NC(=O)[C@H](Cc1ccc(F)c(F)c1)NC(=O)Nc1ccc2c(CN3CCCC3)cn(Cc3c(Cl)cccc3Cl)c2c1)C(=O)NCCN1CCCC1 [Compound 141]	200 nM	70 nM	
NCC[C@H](NC(=O)[C@H](Cc1ccc(F)c(F)c1)NC(=O)Nc1ccc2c(CN3CCCC3)cn(Cc3c(Cl)cccc3Cl)c2c1)C(=O)NCCc1c[nH]cn1 [Compound 142]	1900 nM	480 nM	
CSCC[C@H](NC(=O)[C@H](Cc1ccc(F)c(F)c1)NC(=O)Nc1ccc2c(CN3CCCC3)cn(Cc3c(Cl)cccc3Cl)c2c1)C(=O)NCCN [Compound 143]	290 nM	20 nM	
CCOC(=O)N1CCC(NC(=O)[C@H](CCN)NC(=O)[C@H](Cc2ccc(F)c(F)c2)NC(=O)Nc2ccc3c(CN4CCCC4)cn(Cc4c(Cl)cccc4Cl)c3c2)CC1 [Compound 144]	320 nM	70 nM	
NCCCNC(=O)[C@H](Cc1ccncc1)NC(=O)[C@H](Cc1ccc(Cl)cc1)NC(=O)Nc1ccc2c(CN3CCCC3)cn(Cc3c(Cl)cccc3Cl)c2c1 [Compound 145]	250 nM	500 nM	
NCCNC(=O)CCNC(=O)[C@H](Cc1ccc(Cl)cc1)NC(=O)Nc1ccc2c(CN3CCCC3)cn(Cc3c(Cl)cccc3Cl)c2c1 [Compound 146]	11100 nM	2800 nM	
NCCNC(=O)CNC(=O)[C@H](Cc1cccc(F)c1)NC(=O)Nc1ccc2c(CN3CCCC3)cn(Cc3c(Cl)cccc3Cl)c2c1 [Compound 147]	4400 nM	420 nM	
CC(C)[C@H](NC(=O)[C@H](Cc1ccc(Cl)cc1)NC(=O)Nc1ccc2c(CN3CCCC3)cn(Cc3c(Cl)cccc3Cl)c2c1)C(=O)NCCN [Compound 148]	1400 nM	140 nM	
CCSC[C@H](NC(=O)[C@H](Cc1ccc(Cl)cc1)NC(=O)Nc1ccc2c(CN3CCCC3)cn(Cc3c(Cl)cccc3Cl)c2c1)C(=O)NCCN [Compound 149]	1200 nM	150 nM	
NCCNC(=O)[C@H](CO)NC(=O)[C@H](Cc1ccc(F)c(F)c1)NC(=O)Nc1ccc2c(CN3CCCC3)cn(Cc3c(Cl)cccc3Cl)c2c1 [Compound 150]	1400 nM	100 nM	
NCCNC(=O)[C@H](CSC(c1ccccc1)(c1ccccc1)c1ccccc1)NC(=O)[C@H](Cc1ccc(F)c(F)c1)NC(=O)Nc1ccc2c(CN3CCCC3)cn(Cc3c(Cl)cccc3Cl)c2c1 [Compound 151]		450 nM	2900 nM

Structure (SMILES)	IC50 ([1]; Platelet)	IC50 [2]	IC50 [1]
Cc1cccc(Cn2cc(CN3CCCC3)c3ccc(NC(=O)N[C@@H](Cc4ccc(F)c(F)c4)C(=O)N[C@@H](Cc4cccs4)C(=O)NCCCN)cc32)c1 [Compound 153]	790 nM	27000 nM	
NCC[C@H](NC(=O)[C@H](Cc1ccc(F)c(F)c1)NC(=O)Nc1ccc2c(CN3CCSC3)cn(Cc3c(Cl)cccc3Cl)c2c1)C(=O)NCc1ccccc1 [Compound 154]	12900 nM	750 nM	
NCC[C@H](NC(=O)[C@H](CC1CCCCC1)NC(=O)Nc1ccc2c(CN3CCCC3)cn(Cc3c(Cl)cccc3Cl)c2c1)C(=O)NCc1ccccc1 [Compound 155]	11000 nM	13500 nM	
COCC[C@H](NC(=O)[C@H](Cc1ccc(F)c(F)c1)NC(=O)Nc1ccc2c(CN3CCCC3)cn(Cc3c(Cl)cccc3Cl)c2c1)C(=O)NCCN [Compound 156]	600 nM	40 nM	
C[C@@H](NC(=O)[C@H](CCN)NC(=O)[C@H](Cc1ccc(F)c(F)c1)NC(=O)Nc1ccc2c(CN3CCCC3)cn(Cc3c(Cl)cccc3Cl)c2c1)c1ccccc1 [Compound 157]		480 nM	660 nM
NCC[C@H](NC(=O)[C@H](Cc1ccc(F)c(F)c1)NC(=O)Nc1ccc2c(CN3CCCC3)cn(Cc3c(Cl)cccc3Cl)c2c1)C(=O)NCc1ccc([N+](=O)[O-])cc1 [Compound 158]		1800 nM	740 nM
Cc1coc(CNC(=O)[C@H](CCN)NC(=O)[C@H](Cc2ccc(F)c(F)c2)NC(=O)Nc2ccc3c(CN4CCCC4)cn(Cc4c(Cl)cccc4Cl)c3c2)c1 [Compound 159]		700 nM	430 nM
COc1ccc(C[C@H](NC(=O)Nc2ccc3c(c2)c(CN2CCCCC2)cn3Cc2ccc(F)cc2)C(=O)N[C@@H](CCCNC(=N)N)C(=O)NCc2ccccc2)cc1 [Compound 162]	13000 nM	5300 nM	
COc1ccc(C[C@H](NC(=O)Nc2ccc3c(c2)c(CN2CCSC2)cn3Cc2ccc(F)cc2)C(=O)N[C@@H](CCCNC(=N)N)C(=O)NCc2ccccc2)cc1 [Compound 163]	30000 nM	3000 nM	
NCC[C@H](NC(=O)[C@H](Cc1ccc(F)c(F)c1)NC(=O)Nc1ccc2c(c1)c(CN1CCCC1)cn2Cc1ccc(F)cc1)C(=O)NCc1ccccc1 [Compound 164]	13600 nM	11800 nM	
NCC[C@H](NC(=O)[C@H](Cc1ccc(F)c(F)c1)NC(=O)Nc1cccc2c1c(CN1CCCC1)cn2Cc1c(Cl)cccc1Cl)C(=O)NCc1ccccc1 [Compound 165]	4800 nM	49600 nM	
NCC[C@H](NC(=O)[C@H](Cc1ccc(F)c(F)c1)NC(=O)Nc1cccc2c1c(CN1CCCC1)cn2Cc1c(Cl)cccc1Cl)C(=O)NCCN1CCCC1 [Compound 166]	40300 nM	2000 nM	
NCC[C@H](NC(=O)[C@H](Cc1ccc(F)c(F)c1)NC(=O)Nc1cccc2c(CN3CCCC3)cn(Cc3c(Cl)cccc3Cl)c12)C(=O)NCc1ccccc1 [Compound 167]	8500 nM	67600 nM	
Cc1ccccc1Cn1cc(CN2CCCC2)c2cccc(NC(=O)N[C@@H](Cc3ccc(F)c(F)c3)C(=O)N[C@@H](CCN)C(=O)NCc3ccccc3)c21 [Compound 168]	8300 nM	64300 nM	
N=C(N)NCCC[C@H](NC(=O)[C@H](Cc1ccc(F)c(F)c1)NC(=O)Nc1ccc2c(CN3CCCC3)c(-c3ccccc3)n(Cc3ccc(F)cc3)c2c1)C(=O)NCc1ccc(F)cc1 [Compound 171, L-Argininamide, 3,4-difluoro-N-[[[1-[(4-fluorophenyl)methyl]-2-phenyl-3-(1-pyrrolidinylmethyl)-1H-indol-6-yl]amino]carbonyl]-L-phenylalanyl-N-[(4-fluorophenyl)methyl]-]	1000 nM	100 nM	
Cc1ccccc1Cn1c(Cl)c(CN2CCCC2)c2ccc(NC(=O)N[C@@H](Cc3ccc(F)c(F)c3)C(=O)N[C@@H](CCCNC(=N)N)C(=O)NCc3ccccc3)cc21 [Compound 172]	> 10000 nM	6800 nM	
Cc1ccccc1Cn1c(Cl)c(CN2CCCC2)c2ccc(NC(=O)N[C@@H](Cc3cccc(F)c3)C(=O)N[C@@H](CCCN=C(N)N)C(=O)NCc3ccc(F)cc3)cc21 [Compound 173]	2000 nM	760 nM	
NCCNC(=O)[C@H](Cc1ccncc1)NC(=O)[C@H](Cc1ccc(F)c(F)c1)NC(=O)c1ccc2c(CN3CCCC3)cn(Cc3c(Cl)cccc3Cl)c2c1 [Compound 175, L-Alaninamide, N-[[1-[(2,6-dichlorophenyl)methyl]-3-(1-pyrrolidinylmethyl)-1H-indol-6-yl]carbonyl]-3,4-difluoro-L-phenylalanyl-N-(2-aminoethyl)-3-(4-pyridinyl)-]	1600 nM	90 nM	
